The text below walks through data of patent US20090253796A1, “METHOD FOR TREATING VASCULAR DISEASE” (Research Foundation Itsuu Laboratory, priority 2002, published 2009).

Assay [1] deals with Rat aorta smooth muscle cells. Kind of assay: BrdU uptake (proliferation) of smooth muscle cells. Conditions: for ratio of uptake of BrdU relative to the uptake without Am80: Smooth muscle cell, 10% fetal bovine serum, BrdU added after 24 hours, measured for 4 hours. In kind it is cell-based. As to the method: (§1) Rat aorta smooth muscle cells and human umbilical artery endothelial cells were cultured in the presence of 10% fetal bovine serum, and added with Am80 at various concentrations. After 24 hours, BrdU was added to the culture medium, and BrdU uptake ability was measured for 4 hours. The ratios of uptake of BrdU at the various concentrations relative to the uptake obtained without addition of Am80 are summarized in the table. The BrdU uptake ability represents DNA synthesis ability in proportion to the proliferation.

Assay [2] has as its system rabbit common iliac artery. The assay can be described thus: Restenosis after indwelling of stent in common iliac artery. The class given is in vivo. Conditions: rabbits, oral 1 mg/kg every day, 4 weeks after indwelling of the stent, p<0.05 vs control group. As to the method: Internal diameter of a rabbit common iliac artery was measured by intravascular ultrasound imaging (IVUS), and then a balloon was expanded to a size of 1 to 1.1 times of the internal diameter and a stent was indwelled. After the indwelling, the internal diameter was measured again by IVUS to confirm that the internal diameter changed 1 to 1.1 times and the stent was precisely indwelled. For each of the control group and Am80-administrated group, 6 rabbits were used. The rabbits were orally administered with Am80 at a dose of 1 mg/kg every day, and 4 weeks after the indwelling of the stent, the arteries at the stent-indwelled sites were collected and fixed to examine tissue images. Serial sections were prepared for the proximal, intermediary, and distal positions within the stent, and areas of tunica media and intima were measured.

Assay [3] has as its system human umbilical artery endothelial cells. Kind of assay: BrdU uptake (proliferation) of endothelial cells. In kind it is cell-based. Conditions: for ratio of uptake of BrdU relative to the uptake without Am80: Endothelial cell, 10% fetal bovine serum, BrdU added after 24 hours, measured for 4 hours. The procedure:
as §1

Assay [4] relates to cuff-injured femoral arteries of wild-type mice (129SVxC57BL6). The assay can be described thus: Cuff-injured femoral artery model. In kind it is in vivo. Conditions: for neointima of injured blood vessel (in words) / granulation around the cuff (in words): 5 mg/kg/day. The procedure:
Polyethylene tube cuffs were indwelled in femoral arteries of wild-type mice (129SVxC57BL6) to injure the arteries. Am80 was orally administered at a dose of 5 mg/kg/day, and after 5 weeks, appearance and cross sections of the injured sites were evaluated. Areas of neointima of the femoral artery covered with the tube cuff and granulation tissue around the cuff were measured.

Assay [5] deals with angiotensin II hypercardia model mice. Kind of assay: Angiotensin II hypercardia model. In kind it is in vivo. As to the method:
Mice were administered with angiotensin II at a dose of 3.2 mg/kg/day for two weeks by using an osmotic pressure pump to prepare hypercardia models. After 2 weeks, hypercardia, stromal fibrosing, and fibrosing around coronary artery were observed.

For another assay, the system named is KLF5/BTEB2+/- mice. The assay can be described thus: Cuff injury in KLF5/BTEB2+/- knockout mice. The class given is in vivo. To be noted: in which granulation was otherwise suppressed. The text has this: It is known that various kinds of growth factors are induced in blood vessel walls against affections in the cardiovascular system remodeling. By using mice (KLF5/BTEB2+/−mice) with hetero-knockout of Zn finger type transcription factor KLF5/BTEB2, which is strongly expressed in neointima of injured blood vessels among such growth factors, studies were made to know whether or not the effect of proliferation of neointima was induced by the retinoid action.

Consider `CC1(C)CCC(C)(C)c2cc(NC(=O)c3ccc(C(=O)O)cc3)ccc21` [Am80], for which the “ratio of uptake of BrdU relative to the uptake without Am80” value in assay [1] (0.3 μM) is 95.5; in assay [1] (1 μM), 78.5; in assay [1] (3 μM) it was 74.4; in assay [1] (10 μM), 68.8; in assay [3] (0.3 μM) it was 95.1; in assay [3] (1 μM) it was 109.4. Besides, the “ratio of uptake of BrdU relative to the uptake without Am80” value in assay [3] (3 μM) came out at 104.0; in assay [3] (10 μM) it was 102.1. Further, in assay [1] (summary statement), the “antiproliferative action on vascular smooth muscle cells (in words)” value was “substantially had antiproliferative action”. The “ratio of intima/tunica media” value in assay [2] is reported as “significantly decreased”. In assay [3] (summary statement), the “antiproliferative action on vascular endothelial cells (in words)” value was “substantially no antiproliferative action”. Moreover, the “neointima of injured blood vessel (in words)” value is reported as “significantly decreased” in assay [4] (mice, oral 5 mg/kg/day, after 5 weeks, compared with control mice) and “superior antiproliferative action on neointima” in assay [4] (mice, oral 5 mg/kg/day, after 5 weeks, compared with control mice; listed as 4-[5,6,7,8-tetrahydro-5,5,8,8-tetramethyl-2-naphthalenyl)carbamoyl]benzoic acid). Further, the “granulation around the cuff (in words)” value in assay [4] (mice, oral 5 mg/kg/day, after 5 weeks, compared with mice not administered) is reported as “markedly suppressed”; in assay [4] (mice, oral 5 mg/kg/day, after 5 weeks, compared with mice not administered; listed as 4-[5,6,7,8-tetrahydro-5,5,8,8-tetramethyl-2-naphthalenyl)carbamoyl]benzoic acid) it was “markedly suppressed granulation”. The compound also yielded a Neointima area in assay [4] (mice, oral 5 mg/kg/day, after 5 weeks, control mice 0.0117 mm^2) of 0.0019 mm^2. The Granulation tissue area in assay [4] (mice, oral 5 mg/kg/day, after 5 weeks, control mice 1.08 mm^2) is 0.44 mm^2. In addition, in assay [5] (angiotensin II 3.2 mg/kg/day plus 5 mg/kg/day compound for two weeks), the “onsets of hypercardia, stromal fibrosing, and fibrosing around coronary artery” value was “markedly suppressed”. Moreover, the Heart weight/body weight in assay [5] (angiotensin II 3.2 mg/kg/day plus Am80 5 mg/kg/day for two weeks, control mice 5.65 ± 0.195 mg/g) came to 4.78 ± 0.170 mg/g.
`CN1c2cc3c(cc2N=C(c2ccc(C(=O)O)cc2)c2ccccc21)C(C)(C)CCC3(C)C` [LE135, 4-(5H-7,8,9,10-tetra-hydro-5,7,7,10,10-pentamethylbenzo[e]naphtho[2,3-b][1,4]-diazepin-13-yl)benzoic acid]: in the assay on KLF5/BTEB2+/- mice, the “granulation (in words)” value is “strong granulation was observed”.
